# Assay results taken from patent US12371453B2, “Polypeptide having antibacterial activity, composition for preventing or treating sepsis comprising same, and antibacterial composition” (priority 2019, dated 2025).
# Where two headings read alike, the source gives them in different places. Square brackets hold non-standard residues; d marks the D form. Ends that are not written are not given here. Peptide text beside a SMILES is read from it.
# Columns and labels:
# [1] = LPS binding affinity by Isothermal Titration Calorimeter (ITC); set-up: species or system E. coli K1; conditions: for LPS binding affinity (in words): compared with FP1 (wild type, WT); for Kd: peptide binding to LPS, read-out: Kd (calculated by ITC)
# Excerpt: FPT (ADK 44-54) is denoted by wild type (WT), and peptides in which a point mutation occurred at various sites in WT were manufactured (FP3, FP5, FP6, and FP9). To increase the interaction with LPS in a residue sequence of FP3, peptides were designed based on FP3- and LPS-binding models (FP12-NH2 and FP13-NH2), and peptides were designed by additionally introducing a non-natural amino acid and an amino acid isomer (allomeric D-type amino acid) (allD FP12-NH2, allD FP13-NH2, allD FP-13-9a, allD FP-13-9w, allD FP-13-9k, and allD FP13-NH2 (AcOH)). In addition, an N-terminus PEGylated peptide (PEG-alld FP13-NH2 (AcOH)) was additionally designed, synthesized, and provided by ANYGEN, Co. Ltd. The binding affinity between each of the provided peptides and lipopolysaccharide (LPS) was confirmed through measuring the binding affinity (Kd) using Isothermal Titration Calorimeter (ITC).
# Specifically, a method of analyzing binding affinity (Kd) between a peptide and LPS is as follows.
# Measurement was carried out using a Malvern MicroCal PEAQ-ITC cell instrument, and the following pretreatment was carried out to confirm interaction with LPS. The amount and morphology of a sample cell are 300 μL and coin-shaped, fixed-in-place, respectively; a syringe rotation rate was 1,200 rpm; and a temperature was 30° C., 35° C. or 25° C.
# Before the experiment, LPS and the peptide were previously diluted with PBS, thereby preparing 2 mM LPS and 0.2 mM peptide. 300 μL of the peptide was added into cells in the ITC instrument, which had been washed, and 40 μL of LPS was put into a syringe. After measurement conditions for ITC (temperature, number of injections) were set, the syringe was inserted into the cell, and ITC measurement was started. When the measurement was completed, analysis is performed, and the Kd values of LPS and the peptide were calculated.
# CR-Klebsiella pneumoniae = conditions: CR-
# Experimental: (§1) The antibacterial activity was evaluated according to an antibacterial activity test method for measuring the minimum inhibitory concentration 50 (MIC50; the minimal concentration that kills 50% of bacteria).
# (§2) More specifically, 100 μL of a medium was dispensed into each well of a 96-well plate, and in the first column, an antibiotic and a peptide in 200 μL of the medium were dispensed. 1/2 serial dilution was performed from columns 1 to 11 and five types of antibiotic-resistant bacteria (ESBL-resistant E. coli, carbapenem-resistant A. baumannii, carbapenem-resistant Klebsiella pneumoniae, carbapenem-resistant Pseudomonas aeruginosa, colistin-resistant Acinetobactor baumannii), which had been previously cultured, were diluted (OD600 nm value in dilution: approximately 0.0025) and dispensed into each well. The plate was incubated in a 37° C. incubator for 4 hours, and measured at OD600 nm.
# [2] = test system: Colistin resistant AB (Acinetobactor baumannii)
# Experimental: as §1, §2
# ESBL (E. coli) = conditions: ESBL
# Experimental: as §1, §2
# [3] = test system: Carbapenem resistant (CR)-Acinetobactor baumannii; assay: organism not typed
# Experimental: as §1, §2
# [4] = test system: Pseudomanas aeruginosa PAO1 (ATCC 47085D-5); assay: microbe, parasite or virus in culture; conditions: Pseudomonas aeruginosa
# Experimental: (§3) To compare the antibacterial activity between the four commercially available antibiotics (ampicillin, gentamicin, levofloxacin and imipenem) and the allD FP13-NH2 (AcOH) peptide, an antibacterial activity test was performed to measure the minimum inhibitory concentrations (MIC50 and MIC80) for gram-negative and gram-positive standard strains (Escherichia coli DH5α, Escherichia coli K1, Acinetobacter baumannii, Pseudomonas aeruginosa, Salmonella enteritidis, Salmonella typhimurium, and Klebsiella pneumoniae).
# (§4) More specifically, 100 μL of a medium was dispensed into each well of a 96-well plate, and in the first column, an antibiotic and a peptide in 200 μL of the medium were dispensed. 1/2 serial dilution was performed from columns 1 to 11, and gram-negative and gram-positive bacteria which had been previously cultured were diluted (OD600 nm value in dilution: approximately 0.0025) and dispensed into each well. The plate was incubated in a 37° C. incubator for 4 hours, and measured at OD600 nm.
# Escherichia coli K1 = assay: microbe, parasite or virus in culture; conditions: Escherichia coli
# Experimental: as §3, §4
# [5] = test system: Klebiella pneumoniae (ATCC 13883); assay: microbe, parasite or virus in culture; conditions: Klebsiella pneumoniae
# Experimental: as §3, §4
# [6] = test system: Escherichia coli DH5α (ATCC PTA-4750); assay: microbe, parasite or virus in culture; conditions: Escherichia coli, 4 h
# Experimental: as §3, §4
# [7] = test system: Acinetobacter baumannii (ATCC 19606); assay: microbe, parasite or virus in culture; conditions: Acinetobacter baumannii
# Experimental: as §3, §4
# [8] = test system: Salmonela typhimurium (ATCC 53648); assay: microbe, parasite or virus in culture; conditions: Salmonella enterica
# Experimental: as §3, §4
# [9] = test system: Salmonela enteritidis (ATCC 13076); assay: microbe, parasite or virus in culture; conditions: Salmonella enterica
# Experimental: as §3, §4
molecule,measurement,setting,value
LRLGVEAKRYLR [FP5],LPS binding affinity (in words),[1],strong LPS binding affinity
same,Kd,[1],854 µM
klrvklrrklr-NH2 [allD FP-13-9k-NH2],LPS binding affinity (in words),[1],strong LPS binding affinity
same,Kd,[1],1.99 µM
PEG-KLRVKLRRYLR-NH2 [PEG-alld FP13-NH2 (AcOH)],Kd,[1],17.5 µM
CC(C)C[C@@H](NC(=O)[C@H](N)CCCNC(=N)N)C(=O)N[C@H](CCCNC(=N)N)C(=O)N[C@@H](C(=O)N[C@H](CCCCN)C(=O)N[C@H](CC(C)C)C(=O)N[C@H](CCCNC(=N)N)C(=O)N[C@H](CCCNC(=N)N)C(=O)N[C@H](Cc1c[nH]c2ccccc12)C(=O)N[C@H](CC(C)C)C(=O)N[C@H](CCCNC(=N)N)C(N)=O)C(C)C [allD FP21-NH2] (H-[dR][dL][dR][dV][dK][dL][dR][dR][dW][dL][dR]-NH2; N-terminus assumed),"MIC50, CR-Klebsiella pneumoniae",CR-Klebsiella pneumoniae,<4 µg/mL
same,"MIC50, Colistin resistant AB",[2],<4 µg/mL
same,"MIC50, ESBL (E. coli)",ESBL (E. coli),<0.5 µg/mL
same,"MIC50, Carbapenem resistant (CR)-Acinetobactor baumannii",[3],<1 µg/mL
KLGVEAKRYLR [FP3],LPS binding affinity (in words),[1],strong LPS binding affinity
same,Kd,[1],332 µM
"C[C@H]1COc2c(N3CCN(C)CC3)c(F)cc3c(=O)c(C(=O)O)cn1c23 [Levofloxacin, levofloxacin]",MIC,"[4]; PAO1, read-out: MIC (μg/ml) 50%",< 0.5 µg/mL
same,MIC,"[4]; PAO1, read-out: MIC (μg/ml) 80%",< 1 µg/mL
same,MIC,"Escherichia coli K1; K1, read-out: MIC (μg/ml) 50%",< 0.5 µg/mL
same,MIC,"Escherichia coli K1; K1, read-out: MIC (μg/ml) 80%",< 1 µg/mL
same,MIC,"[5]; ATCC13883, read-out: MIC (μg/ml) 50%",< 0.5 µg/mL
same,MIC,"[5]; ATCC13883, read-out: MIC (μg/ml) 80%",< 1 µg/mL
same,MIC,[6]; read-out: MIC (μg/ml) 50%,< 0.5 µg/mL
same,MIC,[6]; read-out: MIC (μg/ml) 80%,< 1 µg/mL
same,MIC,"[7]; ATCC19606, read-out: MIC (μg/ml) 50%",< 0.5 µg/mL
same,MIC,"[7]; ATCC19606, read-out: MIC (μg/ml) 80%",< 1 µg/mL
same,MIC,[8]; read-out: MIC (μg/ml) 50%,< 0.5 µg/mL
same,MIC,[8]; read-out: MIC (μg/ml) 80%,< 1 µg/mL
same,MIC,[9]; read-out: MIC (μg/ml) 50%,< 0.5 µg/mL
same,MIC,[9]; read-out: MIC (μg/ml) 80%,< 1 µg/mL
RLRVKLRRYLR [FP12],"MIC50, CR-Klebsiella pneumoniae",CR-Klebsiella pneumoniae,<62 µg/mL
same,"MIC50, Colistin resistant AB",[2],<125 µg/mL
same,"MIC50, ESBL (E. coli)",ESBL (E. coli),<2 µg/mL
same,"MIC50, Carbapenem resistant (CR)-Acinetobactor baumannii",[3],<16 µg/mL
KLRVKLRRWLR [allD FP-13-9w-NH2],LPS binding affinity (in words),[1],strong LPS binding affinity
same,Kd,[1],17.4 µM
klrvklrralr-NH2 [allD FP-13-9a-NH2],LPS binding affinity (in words),[1],strong LPS binding affinity
same,Kd,[1],9.54 µM
